Reference: patent US12723064B2, “Treating Alzheimer's disease” (Yeda Research and Development Co. Ltd., priority 2020, dated 2026)
“Also recorded” adds a separate entry of the source.

Legend:
APP-Tau binding = target: T1, APP-Tau binding (Homo sapiens, UniProt P10636); test: ELISA: peptide inhibition of Tau and APP protein binding; conditions: peptides or combinations 1 μg/ml, four hours at RT before APP protein; anti Aß detection
T1 construct: purchased Bio-Legend US
Procedure: An ELISA plate (96 wells) was coated with Tau protein 1 μg/ml in bicarbonate PH=8.2 50 μl/well, then incubated overnight at 4° C. Peptides and their combinations were also incubated overnight at 4° C. in PBS 1 μg/ml. The next day, the plate was washed 3× with PBS and blocked with 3% BSA/PBS for two hours at RT. The plate was washed again 3× with PBS and peptides or their combinations 50 ul/well were added for four hours at RT. The plate was washed again 3× with PBS and APP protein, 1 μg/ml 50 μl/well was added for ON incubation at 4° C. The next day, the plate was washed 3× with PBS, following which anti Aß 1-16 (1 mg/ml) was added (1:500 dilution 50 μl/well) for two hours at RT. The plate was washed again and anti-mouse HRP antibodies (1:10,000 dilution in PBS 1% BSA) added at 50 μl/well. Color reaction was stopped with 50 μl/well of 1M H2S04 and read at 0.D. 450.

Tau = conditions: previously reported (19); cited from earlier work
hippocampus = test: Number of elements and % of area in the hippocampus (Table 3); format: in vivo, mice
Procedure: Mice were sacrificed (trans-cardially punctured, and saline-perfused). The right brain hemisphere of each mouse was stored at −70° C. to quantify Aβ levels. The left hemispheres were fixed (4% paraformaldehyde) and prepared for paraffin blocks which were cut into six micron sagittal sections and used for histological staining and examination. Sagittal brain sections were stained with Congo red dye (Sigma-Aldrich) and visualized by fluorescence microscopy. Quantification of amyloid depositions was done for the whole hippocampal area in a blinded fashion using Imaging Research software from the National Institutes of Health in an unbiased stereological approach.

mice = test: Y maze behavior test of APP1 peptide flexibly linked to Tau peptide; format: in vivo; conditions: treated mice vs control treated mice (PBS), FIG. 6
Source text: The Y-maze test (45) consists of two trials, first “training” and second “retention”, separated by an inter-trial interval (ITI). Each arm of the Y-maze was equipped with a guillotine door that could be operated manually. The three identical arms were randomly designated as follows: the “start” (steam) arm, in which the mouse began to explore the maze (always open); the “Novel” arm, which was closed off during the first trial, but open in the second one; and the “other” arm (always open). The first (training) trial lasted five minutes and allowed the mouse to explore only two arms (“start” and “other”) of the maze. Access to the third (“Novel”) arm was blocked. The second trial (retention) was conducted after a two minute ITL. During this three minute trial, all three arms were accessible. The mouse was returned to the same starting arm and was allowed to explore all three arms. Retention was scored as a preferential index to the “Novel” arm, that was calculated as follows: time spent in the “Novel” arm minus the time spent in the old arm divided by the sum of time spent in both arms (46).
An additional experiment was carried out testing the effects of the APP1 peptide flexibly linked to the TAU peptide on behavior as tested in the Y maze.

T1 sequence (P10636 1-441 isoform P10636-8): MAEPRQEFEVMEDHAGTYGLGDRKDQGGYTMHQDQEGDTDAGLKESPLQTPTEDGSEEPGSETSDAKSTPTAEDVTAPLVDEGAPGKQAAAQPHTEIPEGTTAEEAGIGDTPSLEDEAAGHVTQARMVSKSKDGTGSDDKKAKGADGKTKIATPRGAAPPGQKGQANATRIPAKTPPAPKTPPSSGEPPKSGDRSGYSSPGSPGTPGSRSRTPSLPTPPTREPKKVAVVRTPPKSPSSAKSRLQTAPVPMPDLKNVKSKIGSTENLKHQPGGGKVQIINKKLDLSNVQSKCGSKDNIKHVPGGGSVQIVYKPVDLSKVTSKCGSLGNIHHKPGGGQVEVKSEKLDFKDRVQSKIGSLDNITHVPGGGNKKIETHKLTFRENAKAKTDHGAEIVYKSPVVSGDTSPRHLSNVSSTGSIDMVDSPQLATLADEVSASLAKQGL

Row | Sequence | inhibition of APP protein binding to Tau coated plate (APP-Tau binding) | binding to Tau (Tau) | % of area (hippocampus) [%] | Number of elements (hippocampus) | Y maze preferential index (cognitive ability) (mice)
1 | ATVIVITLVMLKKKQYTS [APP2, reference compound] | not inhibited | bind Tau | – | – | –
2 | GLGDRKDQGGYTMHQD [Tau1, synthetic peptide from N-terminal end of Tau protein (residues 19-34)] | not inhibited | – | – | – | –
3 | HFQKAKERLEAKHRERMSQVMRE [APP1, synthetic peptide from APP protein, APP1 (390-412)] | significant but partial inhibition; also recorded: significant, but partial inhibition | – | – | – | –
4 | HFQKAKERLEAKHRERMSQVMREGGGGSGGGGSGGGGSGLGDRKDQGGYTMHQD (example of a peptide which comprises an APP derived peptide linked by a flexible peptide linker to a TAU derived peptide) | – | – | 1.9 | 112 | improve
